Source: article PMC12419922, “Myristoylated Cathelicidin-DM Fused With ANG1-7: A Novel Self-Assembling Antimicrobial Peptide for the Treatment and Mechanism of Diabetic Infected Wounds” (Journal of Diabetes Research, 2025)
Where no end group is shown, it is not given here. The star is where a group is joined. Myristoyl = CCCCCCCCCCCCCC(=O)*

Experiments:
E. coli biofilms = test: Antibiofilm activity, crystal violet staining and colony counting; format: cell-based, Escherichia coli; conditions: different concentrations, 37°C, 24 h, crystal violet OD 595 nm and viable count
Procedure: (§1) E. coli (ATCC 25922) and S. aureus (ATCC 25923) were cultured overnight in MHB medium at 37°C. The bacterial suspension was diluted to 100 times and added to a 12-well plate (500 μL/well). Each peptide with a different concentration was added to the corresponding well plate and incubated at 37°C for 24 h. After incubation, 100 μL of culture supernatant was discarded. The biofilm was fixed with 100 μL of 100% methanol for 15 min, then air-dried, then dyed with 0.1% crystal violet (CV) for 30 mins, and washed with distilled water three times. After adding 200 μL of 95% ethanol, the inhibition rate of the biofilm was calculated by measuring the OD value at 595 nm with Infinite M200 PRO, Switzerland. After ultrasonic treatment, the biofilm was fully dispersed into single cells, and the cell suspension was diluted to a suitable concentration for colony counting. All experiments were repeated three times.
(§2) The formation of bacterial biofilms in the wounds of DFU patients is the main cause of bacterial resistance. By measuring the antibiofilm ability, the inhibitory and clearing effects of drugs on biofilms can be assessed. In the case of preventing biofilm formation, E. coli and S. aureus were cultured in LB nutrient medium with different concentrations of the novel AMP MYR-DM-ANG1-7 in 24-well plates at 37°C and incubate for 24 h. […]

S. aureus biofilms = test: as above; format: cell-based, Staphylococcus aureus; conditions: different concentrations, 37°C, 24 h, crystal violet OD 595 nm and viable count
Procedure: as §1, §2

HUVECs = test: Reactive oxygen species, DCFH-DA flow cytometry; format: cell-based, human; conditions: 20 μg/mL, compared with the HG + LPS group, p < 0.01
Procedure: To evaluate the antioxidant activity of MYR-DM-ANG1-7, HUVECs were cultured in DMEM supplemented with 10% FBS at 37°C and 5% CO2. After serum starvation for 24 h, the cells were divided into […] experimental groups: normal control group, high glucose + LPS, high glucose + DM group, and high glucose + MYR-DM-ANG1-7. After drug treatment, the cells were washed three times with ice-cold PBS and incubated with 10 μM DCFH-DA probe in serum-free medium at 37°C in the dark for 20 min. After removing the probe with PBS, the fluorescence intensity of 10,000 live cells was immediately measured by flow cytometry (excitation: 488 nm and emission: 530/30 nm). The data were expressed as the geometric mean fluorescence intensity (MFI) of each sample.

[1] = TEM of self-assembled structures; format: physicochemical; conditions: 32 μg/mL, deionized water, 1.5% PTA negative stain
Procedure: The self-assembly morphology of peptide amphiphiles in water was observed using TEM. Each sample was mounted on a 300-mesh copper-coated carbon grid and then negatively stained with a 1.5% phosphotungstic acid solution (1.5% PTA). Before imaging, all samples were air-dried for approximately 10 min. Finally, the samples were characterized under an acceleration voltage of 80 kV.

For “Myristoyl-SSRRKPCKGWLCKLKLRGGYTLIGSATNLNRPTYVRAGGGDRVYIHP (cysteines drawn unpaired) [MYR-DM-ANG1-7]”, which “formation of E. coli biofilms” value (E. coli biofilms) is on record?
The value was “effectively inhibit”.

And the “formation of S. aureus biofilms” value (S. aureus biofilms)?
The value was “effectively inhibit”.

And the “reduction of intracellular reactive oxygen species level” value (HUVECs)?
The value was “approximately 32%”.

What about the “particle size of micelles” value [1] of the same substance?
Its value is 22.38 ± 1.63 nm.
